Test results taken from patent US6858607B1, “7,8-fused 4H-chromene and analogs as activators of caspases and inducers of apoptosis and the use thereof” (Cytovia, Inc., priority 2001, dated 2005).

How the values were obtained:
T-47D = assay: Caspase cascade activation in T-47D cells (N-(Ac-DEVD)-N'-ethoxycarbonyl-R110 fluorogenic substrate); assay type: cell-based; details: T-47D human breast cancer cells, 24 h incubation; for T-47D Ratio (caspase activity): ratio of net RFU of test compound to control
Method: (§1) Human breast cancer cell lines T47D and ZR-75-1 were grown according to media component mixtures designated by American Type Culture Collection+10% FCS (Invitrogen Corporation), in approximately 5% CO2-95% humidity incubator at approximately 37° C. T-47D and ZR-75-1 cells were maintained at a cell density between 30 and 80% confluency at a cell density of 0.1 to 0.6×10^6 cells/mL. Cells were harvested at approximately 600×g and resuspended at approximately 0.65×10^6 cells/mL into appropriate media plus approximately 10% FCS. An aliquot of approximately 45 μl of cells was added to a well of a 96-well microtiter plate containing approximately 5 μl of a solution of approximately 10% DMSO in RPMI-1640 media solution containing approximately 0.16 to 10 μM of the test compounds (0.016 to 1 μM final). An aliquot of approximately 45 μl of cells was added to a well of a 96-well microtiter plate containing approximately 5 μl of a solution of approximately 10% DMSO in RPMI-1640 media solution without test compound as the control sample. The samples were mixed by agitation and then incubated at approximately 37° C. for approximately 24 h in approximately 5% CO2-95% humidity incubator. After incubation, the samples were removed from the incubator and approximately 50 μl of a solution containing approximately 20 μM of N-(Ac-DEVD)-N′-ethoxycarbonyl-R110 fluorogenic substrate, SEQ ID NO:1 (Cytovia, Inc.; U.S. Pat. No. 6,335,429), comprising approximately 20% sucrose (Sigma), 20 mM DTT (Sigma), 200 mM NaCl (Sigma), 40 mM Na PIPES buffer at approximate pH 7.2 (Sigma), and approximately 500 μg/ml lysolecithin (Calbiochem) was added. The samples were mixed by agitation and incubated at room temperature. Using a fluorescent plate reader (Model 1420 Wallac Instruments), an initial reading (T=0) was made approximately 1-2 min after addition of the substrate solution, employing excitation at 485 nm and emission at […], to determine the background fluorescence of the control sample. After the 3 h incubation, the samples were read for fluorescence as above (T=3 h).
(§2) The Relative Fluorescence Unit values (RFU) were used to calculate the sample readings as follows: RFU(T=3h)−Control RFU(T=0)=Net RFU(T=3h)
(§3) The activity of caspase cascade activation was determined by the ratio of the net RFU value for the test compounds to that of control samples. The EC50 (nM) was determined by a sigmoidal dose-response calculation (Prism 2.0, GraphPad Software Inc.).

ZR-75-1 = assay: Caspase cascade activation in ZR-75-1 cells (N-(Ac-DEVD)-N'-ethoxycarbonyl-R110 fluorogenic substrate); assay type: cell-based; details: ZR-75-1 human breast cancer cells, 24 h incubation; for ZR-75-1 Ratio (caspase activity): ratio of net RFU of test compound to control; for EC50: sigmoidal dose-response
Method: as §1, §2, §3

| EC50 (T-47D; sigmoidal dose-response) [nM] | EC50 (ZR-75-1) [nM] | T-47D EC50 (nM) (T-47D; sigmoidal dose-response) | Molecule | T-47D Ratio (caspase activity) (T-47D) | ZR-75-1 Ratio (caspase activity) (ZR-75-1) |
| --- | --- | --- | --- | --- | --- |
| > 1000 | 560 |  | 2-Amino-3-cyano-4-(3-bromo-4,5-dimethoxyphenyl)-4H-triazo[4,5-h]chromene [Example 1] | 1.8 | 5.3 |
| 567 | 366 |  | COc1cc(C2C(C#N)=C(N)Oc3c2ccc2oc(=O)[nH]c32)cc(Br)c1OC (centres unmarked) [Example 2, 2-Amino-3-cyano-4-(3-bromo-4,5-dimethoxyphenyl)-8-oxo-4,8,9-trihydro-oxazo[5,4-h]chromene] | 6.4 | 8.5 |
|  |  | Inactive | COc1cc(C2C(C#N)=C(N)Oc3c2ccc2oc(=O)n(C)c32)cc(Br)c1OC (centres unmarked) [Example 3, 2-Amino-3-cyano-4-(3-bromo-4,5-dimethoxyphenyl)-8-oxo-4,8-dihydro-9-methyl-oxazo[5,4-h]chromene] | 1.5 | 2.7 |
| 47.2 | 23 |  | COC=NC1=C(C#N)C(c2cc(Br)c(OC)c(OC)c2)c2ccc3ocnc3c2O1 (centres unmarked) [Example 4, 2-Methoxymethylimine-3-cyano-4-(3-bromo-4,5-dimethoxyphenyl)-4H-oxazo[5,4-h]chromene] | 8.1 | 7.9 |
| 285 | 156 |  | COc1cc(C2C(C#N)=C(N)Oc3c2ccc2[nH]c(=O)oc32)cc(Br)c1OC (centres unmarked) [Example 5, 2-Amino-3-cyano-4-(3-bromo-4,5-dimethoxyphenyl)-8-oxo-4,7,8-trihydro-oxazo[4,5-h]chromene] | 8.6 | 4.5 |
| 11.8 |  |  | COc1cc(C2C(C#N)=C(N)Oc3c2ccc2c3oc(=O)n2C)cc(Br)c1OC (centres unmarked) [Example 6, 2-Amino-3-cyano-4-(3-bromo-4,5-dimethoxyphenyl)-8-oxo-4,8-dihydro-7-methyl-oxazo[4,5-h]chromene] | 6.5 |  |
| 68.7 | 43 |  | COc1cc(C2C(C#N)=C(N)Oc3c2ccc2ncoc32)cc(Br)c1OC (centres unmarked) [Example 7, 2-Amino-3-cyano-4-(3-bromo-4,5-dimethoxyphenyl)-4H-oxazo[4,5-h]chromene] | 7.8 | 9.8 |
| 35.1 | 12.9 |  | COc1cc(C2C(C#N)=C(N)Oc3c2ccc2ocnc32)cc(Br)c1OC (centres unmarked) [Example 8, 2-Amino-3-cyano-4-(3-bromo-4,5-dimethoxyphenyl)-4H-oxazo[5,4-h]chromene] | 7.9 | 7.2 |
